Assay results reported in PubChem BioAssay AID179 (DTP/NCI, 2004).
Where “and” joins values, the source holds several entries; their conditions need not be identical. Equal entries are not always repeated. Calls of active or inactive are those of the source.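 How the source made its calls: active means compounds giving half or more protection of infected cells from virus-caused growth loss, again on retest; inactive means the rest.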

Test system: CEM cells HIV-1 protection, formazan growth assay
Experiment: NCI AIDS Antiviral Assay
Details: for IC50: measured here: growth of uninfected CEM cells
Method in brief: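 Human CEM cells, uninfected and HIV-1-infected, exposed to five drug concentrations; growth measured by soluble formazan assay and scored as percent protection from infection, with protecting compounds retested.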

**Q.** How did the EC50 turn out when `O=[N+]([O-])C(/C=C(\Cl)[N+](=O)[O-])=C(N1CCCCC1)N1CCCCC1` was run?
**A.** > 200 µM

**Q.** What about the IC50 of the same molecule?
**A.** 75.9 µM

**Q.** `Cn1c(/C=C(\O)c2ccc(Cl)cc2)nc2ccccc21` was tested. Which EC50 did it give?
**A.** > 91.2 µM

**Q.** And the IC50?
**A.** > 91.2 µM

**Q.** Which EC50 does the source give for `CC(C)OP(=O)(OC(C)C)C(C(C)C)N(C)/C(F)=N/C(F)(F)F` (stereo not drawn) here?
**A.** > 200 µM

**Q.** What about the IC50 of the same molecule?
**A.** > 200 µM

**Q.** For `CCC1(O)CC(OC2CC(N(C)C)C(OC3CC4OC5CC(=O)C(C)OC5OC4C(C)O3)C(C)O2)c2c(cc3c(c2O)C(=O)c2c(O)ccc(O)c2C3=O)C1C(=O)OC` (stereo not drawn), which EC50 is on record?
**A.** > 2.4 µM

**Q.** What about the IC50 of the same molecule?
**A.** 0.0155 µM and 0.012 µM

**Q.** What does the source list for `CCN(CC)CCc1nc(-c2ccccc2)no1`?
**A.** EC50: > 200 µM; IC50: 27.5 µM

**Q.** What does the source list for `O=C(CCl)Nc1cccc2ccccc12`?
**A.** EC50: > 200 µM; IC50: 3.24 µM

**Q.** What does the source list for `O=C1COCC(=O)N1`?
**A.** EC50: > 2190 µM; IC50: > 2190 µM

**Q.** Which results are given for `COc1cc(/C=C/C(=O)/C=C/c2cc(OC)c(OC)c(OC)c2)cc(OC)c1OC`?
**A.** EC50: > 200 µM; IC50: 0.0977 µM

**Q.** Which results are given for `Brc1ccc(-c2ccc(-c3ccc(Br)s3)s2)s1`?
**A.** EC50: > 200 µM; IC50: > 200 µM

**Q.** How did the EC50 turn out when `O=[N+]([O-])c1ccc(S(=O)(=O)NN2CCOCC2)cc1` was run?
**A.** > 126 µM

**Q.** What about the IC50 of the same molecule?
**A.** > 126 µM

**Q.** How did the EC50 turn out when `C=CC(=O)N1C/C(=C\c2ccc(N(C)C)cc2)C(=O)/C(=C/c2ccc(N(C)C)cc2)C1` was run?
**A.** > 200 µM

**Q.** And the IC50?
**A.** 60.3 µM

**Q.** For `CC(=O)OCc1c2ccccc2c(C)c2c1cc(F)c1ccccc12`, which outcome is on record?
**A.** inactive

**Q.** With `COc1ccc(/C=N/NC(=O)c2ccc(OCc3nc4ccccc4[nH]3)cc2)cc1` as the molecule, how does the EC50 read?
**A.** 178 µM

**Q.** And the IC50?
**A.** > 200 µM

**Q.** Which results are given for `CCOC(=O)c1cnc2[nH]ccn2c1=O`?
**A.** EC50: > 200 µM; IC50: > 200 µM

**Q.** How did the EC50 turn out when `NC(=O)c1c(NC=O)ncn1C1OCC(O)C(O)C1O` (stereo not drawn) was run?
**A.** > 200 µM

**Q.** And the IC50?
**A.** > 200 µM

**Q.** What does the source list for `O=S(=O)([O-])c1ccc2c(N=Nc3ccc(/C=C\c4ccc(N=Nc5c([O-])ccc6cc(S(=O)(=O)[O-])ccc56)cc4S(=O)(=O)[O-])c(S(=O)(=O)[O-])c3)c([O-])ccc2c1.[Cu+2].[Cu+2].[Na+]`?
**A.** EC50: > 19.1 µM; IC50: 15.8 µM

**Q.** What does the source list for `S=C(N/N=C(/c1ccccc1)c1ccccn1)N(Cc1ccccn1)Cc1ccccn1`?
**A.** EC50: > 200 µM; IC50: 0.0631 µM

**Q.** What does the source list for `CC(C)=Cc1cc(C(=O)NCCNC(=O)c2cc(C=C(C)C)nc(NC#N)n2)nc(NC#N)n1`?
**A.** EC50: > 5.89 µM; IC50: > 5.89 µM

**Q.** Which results are given for `CCN(CC)CCN1CC(=O)N2Cc3ccccc3CN2C(=O)C1`?
**A.** EC50: > 200 µM; IC50: > 200 µM

**Q.** Which results are given for `S=C(NNc1nc2ccccc2n2cccc12)Nc1ccc(Br)cn1`?
**A.** EC50: > 0.2 µM; IC50: 0.0617 µM

**Q.** `CC1(C)C(C#N)=[N+]([O-])C(C)(C)N1O` was tested. Which EC50 did it give?
**A.** > 200 µM

**Q.** And the IC50?
**A.** 123 µM

**Q.** How did the EC50 turn out when `CC(C)CCCC(C)[C@H]1CC[C@@H]2[C@H]3CC[C@H]4C[C@@H](CCC=C(c5cc(Cl)c(OCc6cccc([N+](=O)[O-])c6)c(C(=O)OCc6cccc([N+](=O)[O-])c6)c5)c5cc(Cl)c(OCc6cccc([N+](=O)[O-])c6)c(C(=O)OCc6cccc([N+](=O)[O-])c6)c5)CC[C@]4(C)[C@@H]3CC[C@]12C` (stereo partly drawn) was run?
**A.** > 100 µM

**Q.** And the IC50?
**A.** > 100 µM

**Q.** For `O=C(Nc1ccc(Cl)cc1)C(=O)C1=C(O)c2ccccc2OC1`, which EC50 is on record?
**A.** > 102 µM

**Q.** What about the IC50 of the same molecule?
**A.** > 102 µM

**Q.** Which EC50 does the source give for `O=C(CCCC[P+](c1ccccc1)(c1ccccc1)c1ccccc1)c1ccccc1` here?
**A.** > 200 µM

**Q.** And the IC50?
**A.** 0.661 µM

**Q.** For `S=c1c2ccccc2c(=S)n2n1CC=CC2`, which outcome is on record?
**A.** inactive

**Q.** `O=C(Cc1ccc(Cl)cc1)NC(NC(=O)Cc1ccc(Cl)cc1)C(Cl)(Cl)Cl` was tested. Which EC50 did it give?
**A.** > 200 µM

**Q.** And the IC50?
**A.** > 200 µM

**Q.** How did the EC50 turn out when `CSC(SC)=C1CC(=O)Nc2ccccc2C1=O` was run?
**A.** > 200 µM

**Q.** And the IC50?
**A.** 58.9 µM

**Q.** For `Cn1cnc([N+](=O)[O-])c1SSc1c([N+](=O)[O-])ncn1C`, which EC50 is on record?
**A.** > 200 µM

**Q.** And the IC50?
**A.** > 200 µM

**Q.** With `O=c1c(O)c(-c2ccc(Cl)cc2)oc2ccccc12` as the molecule, how does the EC50 read?
**A.** > 200 µM

**Q.** What about the IC50 of the same molecule?
**A.** 4.07 µM

**Q.** `O=NN(CCCl)C(=O)/N=N/C(=O)N(CCCl)N=O` was tested. Which EC50 did it give?
**A.** > 200 µM

**Q.** What about the IC50 of the same molecule?
**A.** 15.1 µM

**Q.** For `Nc1[nH]n(-c2ccccc2)c(=O)c1/C=N/C(=S)N=Nc1c(O)[nH]c2ccccc12`, which EC50 is on record?
**A.** > 200 µM

**Q.** What about the IC50 of the same molecule?
**A.** 83.2 µM

**Q.** For `C[N+](C)(C)CCC(=O)CC[N+](C)(C)C`, which EC50 is on record?
**A.** > 8.32 µM

**Q.** And the IC50?
**A.** > 8.32 µM

**Q.** What does the source list for `CC(C)CC(=O)NC(Nc1ccc(S(=O)(=O)Nc2ncccn2)cc1)(C(F)(F)F)C(F)(F)F`?
**A.** EC50: > 200 µM; IC50: > 200 µM

**Q.** How did the EC50 turn out when `COc1cc(OC)c(/C=N/N=C(\N)NO)c(OC)c1` was run?
**A.** > 200 µM

**Q.** And the IC50?
**A.** > 200 µM

**Q.** What does the source list for `CCC1(OC(=O)CN2CCN(CCO)CC2)C(=O)OCc2c1cc1n(c2=O)Cc2cc3ccccc3nc2-1` (stereo not drawn)?
**A.** EC50: > 10 µM; IC50: 0.0912 µM

**Q.** What does the source list for `O=[N+]([O-])c1ccc2cnn(CSP(=S)(c3ccccc3)c3ccccc3)c2c1`?
**A.** EC50: > 200 µM; IC50: 3.02 µM

**Q.** Which outcome does the source give for `O=C(O)C(=C/C=C/c1ccccc1)C(=O)O` here?
**A.** inactive

**Q.** `CCOC(=O)C(=CC[C@@H]1N[C@H](C(N)=O)Cc2c1[nH]c1ccccc21)C(=O)OCC` was tested. Which EC50 did it give?
**A.** > 33.9 µM

**Q.** And the IC50?
**A.** > 33.9 µM

**Q.** What does the source list for `CC12CCC(=O)N1c1ccc(Cl)cc1N2` (stereo not drawn)?
**A.** EC50: > 115 µM; IC50: > 115 µM

**Q.** How did the EC50 turn out when `NCCCCC(=O)c1cccnc1` was run?
**A.** > 1000 µM

**Q.** And the IC50?
**A.** 501 µM

**Q.** Which results are given for `CC(=O)CC(=O)/C=C/c1cccs1`?
**A.** EC50: > 257 µM; IC50: 178 µM

**Q.** For `O=C1OC(c2cccc(C(F)(F)F)c2)c2ccc3ccccc3c21` (stereo not drawn), which outcome is on record?
**A.** inactive

**Q.** For `CC(=O)Nc1ccc(/C=C(\NC(=O)c2ccccc2)c2nc3ccc4c(c3[nH]2)C(=O)c2ccccc2C4=O)cc1`, which outcome is on record?
**A.** inactive

**Q.** How did the EC50 turn out when `N#C/C(N)=C(\C#N)N=CNc1ccc(N)cc1` was run?
**A.** > 200 µM

**Q.** What about the IC50 of the same molecule?
**A.** > 100 µM
